From patent US8470776B2, “Conjugates of disorazoles and their derivatives with cell-binding molecules, novel disorazole derivatives, processes of manufacturing and uses thereof” (Aeterna Zentaris GmbH, priority 2006, dated 2013)
≈ marks a conversion by molar mass, not a printed value.

Columns and labels:
[1] = test system: human cervical carcinoma cell line KB/HeLa; experiment: cells; format: cell-based; conditions: for IC50 KB/HELA: XTT, 45 h incubation
Text: (§1) Selected compounds of the invention were investigated for their antiproliferative activity in a proliferation test on established tumor cell lines.
(§2) The test used determines the cellular dehydrogenase activity and makes possible a determination of the cell vitality and indirectly the cell count.
(§3) The cell lines used are the human cervical carcinoma cell line KB/HeLa (ATCC CCL17), the ovarian adenocarcinoma cell line SKOV-3 (ATCC HTB77), the human glioblastoma cell line SF-268 (NCI-503138) and the lung carcinoma cell line NCI-H460 (NCI-503473). In addition, for the investigation of the cell cycle-specific action of the compounds of the invention, an RKOp27 cell system was used (Schmidt M et al. Oncogene 2000, 19(20): 2423-2429). RKO is a human colon carcinoma cell line (ATCC CRL-2577), in which the cell cycle inhibitor p27^kip1 induced by means of the ecdysone expression system is expressed and can be led to a cell cycle arrest specifically in […]. A nonspecifically acting substance inhibits the proliferation independently of whether the RKO cell is or is not arrested in G1 or G2. Cell cycle-specific substances such as, for example, tubulin inhibitors are, however, only cytotoxic if cells are not arrested and the cell cycle is passed through.
(§4) The adherently growing tumor cell lines KB/HeLa, SKOV-3, SF-268 and NCI-H460 were cultured under standard conditions in an incubator at 37° C., 5% CO2 and 95% atmospheric humidity. On experimental day 1, the cells are detached using trypsin/EDTA and pelleted by centrifugation. Subsequently, the cell pellet is resuspended in the respective culture medium at the corresponding cell count and reacted in a 96-well microtiter plate. The plates are then cultured overnight in the incubator. The test substances are prepared as 1 mg/ml stock solutions in DMSO and diluted to the appropriate concentrations on experimental day 2 using culture medium. The substances in culture medium are then added to the cells and incubated in the incubator for 45 h. As a control, cells which are not treated with test substance are used. For the XTT assay, 1 mg/ml of XTT (sodium 3′-[1-(phenylaminocarbonyl)-3,4-tetrazolium]-bis(4-methoxy-6-nitro)benzenesulfonic acid) is dissolved in RPMI-1640 medium without Phenol Red. Additionally, a 0.383 mg/ml PMS (N-methyldibenzopyrazine methylsulfate) solution in phosphate-buffered saline solution (PBS) is prepared. On experimental day 4, 75 μl/well of XTT-PMS mixture is pipetted onto the cell plates which in the meantime have been incubated with the test substances for 45 h. For this, shortly before use, the XTT solution is mixed with the PMS solution in the ratio 50:1 (vol:vol). The cell plates are then incubated in the incubator for a further 3 h and the optical density (OD490 nm) is determined in a photometer. By means of the OD490 nm determined, the percentage inhibition is calculated relative to the control and plotted semilogarithmically in the form of a concentration-action curve. The IC50 is calculated by means of a regression analysis from the concentration-action curve using the program Graphpad Prism.

[2] = test system: human glioblastoma cell line SF-268; experiment: cells; format: cell-based; conditions: for IC50 SF-268: XTT, 45 h incubation
Text: as §1, §2, §3, §4

[3] = test system: lung carcinoma cell line NCI-H460; experiment: cells; format: cell-based, human; conditions: for IC50 NCI-H460: XTT, 45 h incubation
Text: as §1, §2, §3, §4

[4] = test system: ovarian adenocarcinoma cell line SKOV-3; experiment: cells; format: cell-based, human; conditions: for IC50 SKOV-3: XTT, 45 h incubation
Text: as §1, §2, §3, §4

[5] = test system: RKOp27 cells (human colon carcinoma cell line RKO), p27kip1 induced; experiment: cells; format: cell-based; conditions: for IC50 RKOp27 induced: p27kip1 induced with 3 μM muristerone A, XTT, 45 h
Text: as §3, §4
(§5) The assay is carried out in 96-well plates. […] By comparison of the activity on induced and noninduced cells, conclusions on the mechanism of action (cell cycle specificity) of the therapeutics can be drawn. […] cells are inoculated in approximately three-fold higher cell count, since division no longer takes place during the assay in comparison with uninduced cells (20000 cells/well induced, 6250 cells/well not induced). The controls are untreated cells (+/−induction). The induction is carried out with 3 μM muristerone A. On the 1st day, the cells are exposed (+/−muristerone A) and incubated at 37° C. for 24 h. On day 2, the test substance is added (control DMSO) and incubation is continued at 37° C. for a further 45 h before a standard XTT assay is carried out.

[6] = test system: RKOp27 cells (human colon carcinoma cell line RKO), p27kip1 not induced; experiment: cells; format: cell-based; conditions: for IC50 RKOp27: without expression of p27kip1, XTT, 45 h
Text: as §3, §4, §5

[7] = test system: human GnRH receptor (hGnRH-R) positive cell line 5C6; experiment: GnRH-receptor dependent proliferation assay, 5C6; format: cell-based; conditions: 30 min exposure, vital cells vs untreated control = 100%
Protocol: (§6) The dose-dependent receptor-mediated inhibition of cell proliferation of selected compounds of the invention was investigated.
(§7) To study these effects a human GnRH receptor (hGnRH-R) positive cell line (5C6; Beckers et al., Eur. J. Biochem. 1995, 231: 535-543) and an hGnRH-R negative cell line (LTK^−; ECACC No. 85011432) was used.
(§8) Respective cells were exposed to 1 mL culture medium in 24 well multi-titer-plates (MTPs) with a cell number of 15000 cells per well. The cell number is adjusted in such a way that after 5 days of testing the untreated control cells are still in the exponential growth phase.
(§9) Test compounds are given to the cultured cells after 4 hours of initial growth (adherence) in a volume of 100 μL to yield the final concentrations given in table 2.
(§10) After 30 min of incubation at 37° C. the entire culture medium is sucked off and the cells are washed twice with culture medium without test compounds. After the washing the cells are placed into an incubator (at 37° C., 5% CO2 and 95% atmospheric humidity) and incubated for further 4 days.
(§11) For the determination of the cell number after incubation the cells are detached using trypsin/EDTA and centrifuged. The number of vital cells and the total cell number are counted using a Vi-Cell Analyzer (Beckman Coulter).
(§12) The number of vital cells is analyzed in comparison with untreated control cells (=100%). Only cell groups (respective wells) are considered of which the total cell viability is more than 90%, i.e. inhibition of cell proliferation by unspecific toxicity can be excluded.
(§13) The proliferation status of untreated control cells after 96 hours is set to 100%.

[8] = test system: hGnRH-R negative cell line LTK−; experiment: GnRH-receptor dependent proliferation assay, LTK-; format: cell-based; conditions: 30 min exposure, vital cells vs untreated control = 100%
Protocol: as §6, §7, §8, §9, §10, §11, §12, §13

[9] = test system: GnRH receptor positive, human ovarian carcinoma cell line OVCAR-3; experiment: OVCAR-3 tumors in nude mice, single i.v. dose; format: in vivo, CD 1 nu/nu nude mice; conditions: for Average tumor size day 18: once on day 0, tail vein; for Average tumor size day 0: tail vein, day 0 (baseline before dosing)
Protocol: 30 CD 1 nu/nu nude mice were inoculated subcutaneously with the GnRH receptor positive, human ovarian carcinoma cell line OVCAR-3 (5 million cells per animal). The experiment was started after formation of solid tumors. 5 animals per dose group were used.
On day 0 of the experiment, the individual tumor volume was determined by palpation and set to 100%. Test compounds were administered subsequently on day 0 of the experiment by injection into the tail vein of the test animals.
A standard volume of 10 ml of 0.9% saline per kg (200 μl per 20 g mouse) containing the test compound in the required concentration was administered once only on day 0 of the experiment.
The tumor size was determined again by palpation on day 18 of the experiment.
In the case of appearance of additional tumors, the volumes were added.

cell models = conditions: reported in literature; cited from earlier work
mammalian cells = conditions: Elnakady et al. 2004; cited from earlier work
[10] = test system: various human tumor cell lines; conditions: nano- and picomolar concentrations; WO 2004/024149; cited from earlier work
[11] = test system: paclitaxel- and vindesine-resistant cell lines; conditions: WO 2004/024149; cited from earlier work

C/C=C/C(O)C(C)(C(=O)OC)C1C\C=C/C=C/C=C/c2nc(co2)C(=O)OC(C(C)(C(=O)OC)C(/C=C/C)OC(=O)CCC(=O)NCCCC[C@H](NC(=O)[C@H](Cc2ccc(O)cc2)NC(=O)[C@H](CO)NC(=O)[C@H](Cc2c[nH]c3ccccc23)NC(=O)[C@H](Cc2cnc[nH]2)NC(=O)[C@@H]2CCC(=O)N2)C(=O)N[C@@H](CC(C)C)C(=O)N[C@@H](CCCNC(=N)N)C(=O)N2CCC[C@H]2C(=O)NCC(N)=O)C\C=C/C=C/C=C/c2nc(co2)C(=O)O1 (stereo partly drawn) [compound 16, Disorazole Z Mono Hemi Succinyl [D-Lys^6]LHRH]
IC50 KB/HELA [1]: 18.92 ng/mL (≈ 9.09 nM)
IC50 SF-268 [2]: 17.8 ng/mL (≈ 8.55 nM)
IC50 NCI-H460 [3]: 9.235 ng/mL (≈ 4.43 nM)
IC50 SKOV-3 [4]: 7.683 ng/mL (≈ 3.69 nM)
IC50 RKOp27 induced [5]: >3160 ng/mL
IC50 RKOp27 [6]: 5.18 ng/mL (≈ 2.49 nM)
proliferation status after 96 hours, cell line 5C6, 0.1 nM ([7]; 0.1 nM): 83.8%
proliferation status after 96 hours, cell line 5C6, 1 nM ([7]; 1 nM): 80.9%
proliferation status after 96 hours, cell line 5C6, 10 nM ([7]; 10 nM): 54.1%
proliferation status after 96 hours, cell line 5C6, 100 nM ([7]; 100 nM): 21.9%
proliferation status after 96 hours, cell line LTK−, 0.1 nM ([8]; 0.1 nM): 101.8%
proliferation status after 96 hours, cell line LTK−, 1 nM ([8]; 1 nM): 105.8%
proliferation status after 96 hours, cell line LTK−, 10 nM ([8]; 10 nM): 103.4%
proliferation status after 96 hours, cell line LTK−, 100 nM ([8]; 100 nM): 61.7%
Average tumor size day 18 ([9]; 0.1 mg/kg = 43 nmol/kg, day 18): 76
Average tumor size day 0 ([9]; 0.1 mg/kg = 43 nmol/kg): 79
Average tumor size day 18 ([9]; 0.5 mg/kg = 215 nmol/kg, day 18): 40
Average tumor size day 0 ([9]; 0.5 mg/kg = 215 nmol/kg): 74

C/C=C/[C@H](O)C(C)(C)[C@@H]1C\C=C/C=C\C=C\[C@H](OC)Cc2nc(co2)C(=O)O[C@H](C(C)(C)[C@@H](O)/C=C/C)C/C=C\[C@H]2O[C@H]2/C=C/C=C\c2nc(co2)C(=O)O1 [disorazol A1, disorazole A1, reference compound]
IC50 KB/HELA [1]: 0.049 ng/mL (≈ 0.0646 nM)
IC50 SF-268 [2]: 0.125 ng/mL (≈ 0.165 nM)
IC50 NCI-H460 [3]: 0.022 ng/mL (≈ 0.029 nM)
IC50 SKOV-3 [4]: 0.027 ng/mL (≈ 0.0356 nM)
IC50 RKOp27 induced [5]: >3160 ng/mL
IC50 RKOp27 [6]: 0.049 ng/mL (≈ 0.0646 nM)
antiproliferative action in cell models (cell models): possesses an antiproliferative action
induction of apoptosis in mammalian cells (mammalian cells): induces apoptosis

C/C=C/C(O)C(C)(C)C1C/C=C\C2OC2C=CC(OC)Cc2nc(co2)C(=O)OC(C(C)(C)C(O)/C=C/C)C/C=C\C2OC2/C=C\C=Cc2nc(co2)C(=O)O1 (centres unmarked) [disorazol E1, disorazole E1, reference compound]
IC50 KB/HELA [1]: 0.17 ng/mL (≈ 0.219 nM)
IC50 SF-268 [2]: 0.474 ng/mL (≈ 0.612 nM)
IC50 NCI-H460 [3]: 0.065 ng/mL (≈ 0.0839 nM)
IC50 SKOV-3 [4]: 0.074 ng/mL (≈ 0.0955 nM)
IC50 RKOp27 induced [5]: >3160 ng/mL
IC50 RKOp27 [6]: 0.17 ng/mL (≈ 0.219 nM)
cytotoxic action on various human tumor cell lines [10]: possess cytotoxic action
activity against paclitaxel- and vindesine-resistant cell lines [11]: active

C/C=C/C(O)C(C)(C(=O)OC)C1C\C=C/C=C/C=C/c2nc(co2)C(=O)OC(C(C)(C(=O)OC)C(O)/C=C/C)C\C=C/C=C/C=C/c2nc(co2)C(=O)O1 (centres unmarked) [disorazol Z, disorazole Z, reference compound]
IC50 ([1]; Homo sapiens, HeLa, 45 h, read-out: IC50 KB/HELA): 1.01 ng/mL (≈ 1.35 nM)
IC50 ([2]; Homo sapiens, SF-268, 45 h, read-out: IC50 SF-268): 1.28 ng/mL (≈ 1.72 nM)
IC50 ([3]; Homo sapiens, NCI-H460, 45 h, read-out: IC50 NCI-H460): 0.67 ng/mL (≈ 0.897 nM)
IC50 ([4]; Homo sapiens, SK-OV-3, 45 h, read-out: IC50 SKOV-3): 0.504 ng/mL (≈ 0.675 nM)
IC50 ([5]; Homo sapiens, RKOp27, 45 h, read-out: IC50 RKOp27 induced): > 3160 ng/mL
IC50 ([6]; Homo sapiens, RKOp27, 45 h, read-out: IC50 RKOp27): 0.659 ng/mL (≈ 0.882 nM)
Average tumor size day 18 ([9]; 0.16 mg/kg = 215 nmol/kg, day 18): 146
Average tumor size day 0 ([9]; 0.16 mg/kg = 215 nmol/kg): 92
suppression of tumor growth (in words) ([9]; OVCAR-3 tumors, single i.v. dose, day 18): moderate suppression of tumor growth

disorazole D1
cytotoxic action on various human tumor cell lines [10]: possess cytotoxic action
